For series [1], the system named is formalin-induced pain in Sprague-Dawley rats. The series can be described thus: Formalin model of acute tonic pain. The class given is in vivo, rat. As to the method:
Male Sprague-Dawley rats are housed together in groups of three animals under standard conditions with unrestricted access to food and water. All experiments are conducted according to the ethical guidelines for investigations of experimental pain in conscious animals (Zimmerman, 1983)
Assessment of formalin-induced flinching behavior in normal, uninjured rats (body weight 150-180 g) was made with the use of an Automated Nociception Analyser (University of California, San Diego, USA). Briefly, this involved placing a small C-shaped metal band (10 mm wide×27 mm long) on the hindpaw of the rat to be tested. The rats (four rats were included in each testing session) were then placed in a cylindrical plexiglass observation chamber (diameter 30.5 cm and height 15 cm) for 20 min for adaptation purposes prior to being administered drug or vehicle according to the experimental paradigm being followed. After adaptation, individual rats were then gently restrained and formalin (5% in saline, 50 μl, s.c.) was injected into the plantar surface of the hindpaw using a 27 G needle. Rats were then returned to their separate observation chambers, each of which were in turn situated upon an enclosed detection device consisting of two electromagnetic coils designed to produce an electromagnetic field in which movement of the metal band could be detected. The analogue signal was then digitised and a software algorithm (LabView) applied to enable discrimination of flinching behaviour from other paw movements. A sampling interval of 1 min was used and on the basis of the resulting response patterns 5 phases of nociceptive behaviour were identified and scored: first phase (P1; 0-5 min), interphase (Int; 6-15 min), second phase (P2; […]), phase 2A (P2A; 16-40 min) and phase 2B (P2B; 41-60 min).
Nociceptive behavior was also determined manually every 5 min by measuring the amount of time spent in each of four behavioral categories: 0, treatment of the injected hindpaw is indistinguishable from that of the contralateral paw; 1, the injected paw has little or no weight placed on it; 2, the injected paw is elevated and is not in contact with any surface; 3, the injected paw is licked, bitten, or shaken. A weighted nociceptive score, ranging from 0 to 3 was calculated by multiplying the time spent in each category by the category weight, summing these products, and dividing by the total time for each 5 min block of time. (Coderre et al., Pain 1993; 54: 43). On the basis of the resulting response patterns, 2 phases of nociceptive behavior were identified and scored: first phase (P1; 0-5 min), interphase (Int; 6-15 min), second phase (P2; […]), phase 2A (P2A; 16-40 min) and phase 2B (P2B; 41-60 min).
Statistical analysis was performed using Prism™ 4.01 software package (GraphPad, San Diego, Calif., USA). The difference in response levels between treatment groups and control vehicle group was analyzed using an ANOVA followed by Bonferroni's method for post-hoc pair-wise comparisons. A p value<0.05 was considered to be significant
The effect of Compound A on pain induced by intraplantar formalin injection was investigated. Compound A was administered i.p. 30 min. before the formalin. Compound A was able to reduce the total pain score behavior (flinching, licking, biting) in phase 1 and 2 of the formalin test.

Series [2] can be described thus: Metabolite identification (LC-MS), sample 1, source of sample not given. The series is classed as in vitro ADME. From the text:
The objective of this study is to analyze in vitro samples of Compound A and Compound B from rat and human microsomes using liquid chromatography quadrupole ion trap mass spectrometry and identify the nature of the metabolite(s) for each species.
The HPLC system consisted of a Thermo Surveror autosampler and a Thermo Surveyor MS pump (San Jose, Calif., USA). The LC-MS/MS system used was a Thermo LCQ Advantage (San Jose, Calif., USA). Data was acquired on a Dell Optiplex desktop computer (Round Rock, Tex., USA) equipped with operation system Windows XP professional. Data acquisition and analysis were performed using XCalibur 1.4 (San Jose, Calif., USA).
After the incubation period of the liver microsomes, the reaction was stopped with the addition of acetonitrile and frozen for transport. Before analysis, the samples were thawed at room temperature. They were vortexed vigorously and centrifuged at approximately 12000 g for 10 minutes. The supernatant was transferred into an injection vial for analysis.
A gradient mobile phase was used with a Thermo Phenyl 100×2 mm column with particle size of 5 μm. The initial mobile phase condition consisted of methanol and 0.1% formic acid solution at a ratio of 20:80, respectively. From 0 to 2 minutes, the ratio was maintained at 20:80. From 2 to 10 minutes, a linear gradient was applied and a ratio of 90:10 was maintained from 10 to 12 minutes. […] The flow rate was fixed at 0.25 mL/min.
The mass spectrometer was interfaced with the HPLC system using a pneumatic assisted electrospray ion source. The sheath gas was set to 15 units and the ESI electrode was set to 4000 V (positive mode). The capillary temperature was set at 300° C., and the capillary voltage was set to 13 V. The mass spectrometer was operating in full scan MS mode using one segment analysis (200-800).

[3] abbreviates: i.p. 30 min before formalin, n=6-8.

In general, ED50 refers to the dose that gives a 50% effect, or the effect in half of the subjects.

On to `COc1ccc(F)cc1-c1cc2c(c3c1CCN(C)C3)NC(=O)C2=NO` [Compound A, 5-(5-fluoro-2-methoxyphenyl)-6,7,8,9-tetrahydro-3-(hydroxyimino)-8-methyl-1H-pyrrolo[3,2-h]isoquinoline-2(3H)-one], for which the median effective dose (ED50) in series [1] (Rattus norvegicus, ip, i.p. 30 min before formalin, read-out: ED50, Phase 2 of the total pain score) is roughly 12 mg/kg. Further, the “relationship between dose and plasma exposure” value in series [1] (formalin experiments, i.p.) was “linear relationship”. Moreover, in series [1] (setting [3]), the “effects on phases 1 and 2, specific pain behaviors (licking and biting) only” value is “quite pronounced”; the “total pain score behavior (flinching, licking, biting) in phase 1 and 2 of the formalin test” value was “reduce”. The “acute tonic pain induced by formalin injection in the paw” value in series [1] (rat, in vivo) is listed as “block”. In series [2], the “Compound A metabolite identification: m/z 342” value was “no”, the “Compound A metabolite identification: m/z 356 (parent)” value is given as “Yes”, the “Compound A metabolite identification: m/z 372” value is given as “no” and the “Compound A metabolite identification: m/z 412” value was “no”.

The record behind these values is patent US20090246134A1, “COMPOSITIONS AND METHODS FOR MODULATING GATED ION CHANNELS” (PainCeptor Pharma Corporation, priority 2007, published 2009).
